PubChem BioAssay (NCI)
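Exposure lasted 48 hours, with cells grown in 96-well plates and compounds tested at five concentrations. Here, GI50 denotes the concentration required for 50% inhibition of growth. The concentration for full growth arrest is given as TGI.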

Legend:
Experiment in all cases: growth of human tumour cells (NCI), 48 h
786-0 renal = system: 786-0 renal
A549 NSCLC = system: A549 NSCLC
ACHN renal = system: ACHN renal
BT-549 breast = system: BT-549 breast
CAKI-1 renal = system: CAKI-1 renal
CCRF-CEM leukemia = system: CCRF-CEM leukemia
COLO 205 colon = system: COLO 205 colon
DU-145 prostate = system: DU-145 prostate
EKVX NSCLC = system: EKVX NSCLC
HCC-2998 colon = system: HCC-2998 colon
HCT-15 colon = system: HCT-15 colon
HOP-62 NSCLC = system: HOP-62 NSCLC
HOP-92 NSCLC = system: HOP-92 NSCLC
HS 578T breast = system: HS 578T breast
HT29 colon = system: HT29 colon
IGROV1 ovarian = system: IGROV1 ovarian
K-562 leukemia = system: K-562 leukemia
KM12 colon = system: KM12 colon
LOX IMVI melanoma = system: LOX IMVI melanoma
M14 melanoma = system: M14 melanoma
MALME-3M melanoma = system: MALME-3M melanoma
MCF7 breast = system: MCF7 breast
MDA-MB-231 breast = system: MDA-MB-231 breast
MDA-MB-435 = system: MDA-MB-435
MOLT-4 leukemia = system: MOLT-4 leukemia
NCI-H226 lung = system: NCI-H226 lung
NCI-H23 lung = system: NCI-H23 lung
NCI-H460 lung = system: NCI-H460 lung
NCI-H522 lung = system: NCI-H522 lung
NCI/ADR-RES ovarian = system: NCI/ADR-RES ovarian
OVCAR-3 ovarian = system: OVCAR-3 ovarian
OVCAR-4 ovarian = system: OVCAR-4 ovarian
OVCAR-5 ovarian = system: OVCAR-5 ovarian
OVCAR-8 ovarian = system: OVCAR-8 ovarian
PC-3 prostate = system: PC-3 prostate
RPMI-8226 leukemia = system: RPMI-8226 leukemia
RXF 393 renal = system: RXF 393 renal
SF-268 CNS = system: SF-268 CNS
SF-295 CNS = system: SF-295 CNS
SF-539 CNS = system: SF-539 CNS
SK-MEL-2 melanoma = system: SK-MEL-2 melanoma
SK-MEL-28 melanoma = system: SK-MEL-28 melanoma
SK-MEL-5 melanoma = system: SK-MEL-5 melanoma
SK-OV-3 ovarian = system: SK-OV-3 ovarian
SN12C renal = system: SN12C renal
SNB-19 CNS = system: SNB-19 CNS
SNB-75 CNS = system: SNB-75 CNS
SR leukemia = system: SR leukemia
SW-620 colon = system: SW-620 colon
T-47D breast = system: T-47D breast
TK-10 renal = system: TK-10 renal
U251 CNS = system: U251 CNS
UACC-257 melanoma = system: UACC-257 melanoma
UACC-62 melanoma = system: UACC-62 melanoma
UO-31 renal = system: UO-31 renal

## O=C1c2ccccc2-c2c1c1ccc3ccccc3c1n2-c1ccccc1
786-0 renal
  GI50: 25.3 µM
  TGI: 53.9 µM
A549 NSCLC
  GI50: 36.5 µM
  TGI: 93.5 µM
ACHN renal
  GI50: 20.5 µM
  TGI: 40.2 µM
BT-549 breast
  GI50: 44.7 µM
  TGI: > 100 µM
CAKI-1 renal
  GI50: 22 µM
  TGI: 40.9 µM
CCRF-CEM leukemia
  GI50: > 100 µM
  TGI: > 100 µM
COLO 205 colon
  GI50: 30.7 µM
  TGI: > 100 µM
DU-145 prostate
  GI50: 39 µM
  TGI: > 100 µM
EKVX NSCLC
  GI50: 40 µM
  TGI: > 100 µM
HCC-2998 colon
  GI50: 30.5 µM
  TGI: 94.4 µM
HCT-15 colon
  GI50: > 100 µM
  TGI: > 100 µM
HOP-62 NSCLC
  GI50: 25.1 µM
  TGI: 58.7 µM
HOP-92 NSCLC
  GI50: 16 µM
  TGI: 52.1 µM
HS 578T breast
  GI50: 18 µM
  TGI: 39.2 µM
HT29 colon
  GI50: > 100 µM
  TGI: > 100 µM
IGROV1 ovarian
  GI50: 29.7 µM
  TGI: > 100 µM
K-562 leukemia
  GI50: > 100 µM
  TGI: > 100 µM
KM12 colon
  GI50: 21.3 µM
  TGI: > 100 µM
LOX IMVI melanoma
  GI50: 39 µM
  TGI: > 100 µM
M14 melanoma
  GI50: 94.1 µM
  TGI: > 100 µM
MALME-3M melanoma
  GI50: 28.1 µM
  TGI: 66.2 µM
MCF7 breast
  GI50: 15.6 µM
  TGI: > 100 µM
MDA-MB-231 breast
  GI50: 22.3 µM
  TGI: 47.3 µM
MDA-MB-435
  GI50: 97.9 µM
  TGI: > 100 µM
MOLT-4 leukemia
  GI50: > 100 µM
  TGI: > 100 µM
NCI-H226 lung
  GI50: 27.9 µM
  TGI: 75.2 µM
NCI-H23 lung
  GI50: 56.8 µM
  TGI: > 100 µM
NCI-H460 lung
  GI50: 31.7 µM
  TGI: > 100 µM
NCI-H522 lung
  GI50: 53.1 µM
  TGI: > 100 µM
NCI/ADR-RES ovarian
  GI50: 20.7 µM
  TGI: 58.5 µM
OVCAR-3 ovarian
  GI50: 24.6 µM
  TGI: 57.6 µM
OVCAR-4 ovarian
  GI50: > 100 µM
  TGI: > 100 µM
OVCAR-5 ovarian
  GI50: 29.2 µM
  TGI: > 100 µM
OVCAR-8 ovarian
  GI50: 23 µM
  TGI: 54.7 µM
PC-3 prostate
  GI50: 35.7 µM
  TGI: > 100 µM
RPMI-8226 leukemia
  GI50: 65.1 µM
  TGI: > 100 µM
RXF 393 renal
  GI50: 18.9 µM
  TGI: 52.1 µM
SF-268 CNS
  GI50: 20 µM
  TGI: 52.3 µM
SF-295 CNS
  GI50: 22.9 µM
  TGI: 67.4 µM
SF-539 CNS
  GI50: 18.2 µM
  TGI: 36.3 µM
SK-MEL-2 melanoma
  GI50: > 100 µM
  TGI: > 100 µM
SK-MEL-28 melanoma
  GI50: > 100 µM
  TGI: > 100 µM
SK-MEL-5 melanoma
  GI50: 16.5 µM
  TGI: 50.1 µM
SK-OV-3 ovarian
  GI50: 26.2 µM
  TGI: 54.1 µM
SN12C renal
  GI50: 20.5 µM
  TGI: 50 µM
SNB-19 CNS
  GI50: 25.7 µM
  TGI: 59.1 µM
SNB-75 CNS
  GI50: 81.2 µM
  TGI: > 100 µM
SR leukemia
  GI50: 41.9 µM
  TGI: > 100 µM
SW-620 colon
  GI50: 59.5 µM
  TGI: > 100 µM
T-47D breast
  GI50: 12.7 µM
  TGI: 41.5 µM
TK-10 renal
  GI50: 20.6 µM
  TGI: 44.7 µM
U251 CNS
  GI50: 18.9 µM
  TGI: 35.7 µM
UACC-257 melanoma
  GI50: 64.8 µM
  TGI: > 100 µM
UACC-62 melanoma
  GI50: 20.4 µM
  TGI: 44.2 µM
UO-31 renal
  GI50: 44.7 µM
  TGI: > 100 µM
